Numbers after ± are expanded uncertainties.
Test: Molar enthalpy of transition or fusion
Settings: Crystal 2; Adiabatic calorimetry

Which “Molar enthalpy of transition or fusion” value does the source give for `O=P([O-])([O-])[O-].[Cs+].[Mg+2]` [caesium-magnesium monophosphate] here?
The value was 0.0648 ± 0.00598 kcal/mol.

— the NIST ThermoML archive (doi:10.1016/j.jct.2007.11.001)
